Assay [1] is described as follows: Inhibition of human topoisomerase 2.
Assay [2] can be described thus: Activation of miR-122 (unknown origin) by luciferase assay.
Assay [3] in a line: Activation of miR-122 (unknown origin) assessed as relative light unit by luciferase assay. The note with it: filed as activator.
The subject of a further assay is MCF7. Kind of assay: Inhibition of miR-122 in human MCF7 cells relative to control. Format: cell-based. The note with it: dose or concentration not given here.
A further assay deals with Huh-7. Kind of assay: Inhibition of miR-122 in human Huh-7 cells relative to control. Format: cell-based. The note with it: dose or concentration not given here.
Assay [4] is described as follows: Inhibition of miR-122 (unknown origin) assessed as relative light unit by luciferase assay.
A short description of assay [5]: Inhibition of miR-122 (unknown origin) by luciferase assay.
Assay [6] deals with HeLa. Kind of assay: Inhibition of pre-miR-10b maturation in human HeLa cells at 100 uM by luciferase assay relative to control. Format: cell-based.
The nature of assay [7]: Binding affinity to miR-10b (unknown origin) assessed as dissociation constant.
The subject of assay [8] is HeLa. Kind of assay: Inhibition of miR-10b maturation in human HeLa cells at 100 uM by luciferase assay relative to control. Format: cell-based.
A short description of assay [9]: Binding affinity to miR-27a (unknown origin) assessed as dissociation constant by FP assay.
Assay [10] is described as follows: Inhibition of miR-27a (unknown origin) maturation at 5 uM relative to control.
The target of a further assay is Protein argonaute-2 (Homo sapiens, UniProt Q9UKV8). In words: Binding affinity to AGO2 (unknown origin) assessed as dissociation constant by RIP assay.
A short description of assay [11]: Inhibition of pre-miR-21 (unknown origin).
Assay [12] can be described thus: Binding affinity to pre-miR-21 (unknown origin) at A bulge assessed as dissociation constant by dicer assay.
Assay [13] can be described thus: Binding affinity to pre-miR-21 (unknown origin) at U bulge assessed as dissociation constant by dicer assay.
Assay [14] has as its system HeLa. In words: Inhibition of miR-96 maturation in human HeLa cells at 40 uM by luciferase assay relative to control. Format: cell-based.
A short description of assay [15]: Binding affinity to pre-miR-21 (unknown origin) assessed as dissociation constant.
Assay [16] is described as follows: Binding affinity to pre-miR-21 (unknown origin) assessed as dissociation constant by fluorescence-based assay.
The nature of assay [17]: Binding affinity to pre-miR-373 (unknown origin) assessed as dissociation constant.
The nature of assay [18]: Inhibition of pre-miR-373 (unknown origin) at 250 uM by FRET assay relative to control.
Assay [19] is described as follows: Inhibition of pre-miR-373 (unknown origin) by FRET assay.
A short description of assay [20]: Inhibition of pre-miR-372 (unknown origin) by FRET assay.
Assay [21] is described as follows: Inhibition of pre-miR-21 (unknown origin) at 5 uM by FP assay relative to control.
The nature of assay [22]: Binding affinity to miR-96 (unknown origin) assessed as dissociation constant. Further details: species or system Homo sapiens.
Assay [23] is described as follows: Binding affinity to miR-18a (unknown origin) assessed as dissociation constant.
The nature of assay [24]: Inhibition of miR-96 (unknown origin). Further details: species or system Homo sapiens.
The nature of assay [25]: Inhibition of miR-18a (unknown origin) […] by qRT-PCR analysis. A general note: Real-time PCR tracks product formation cycle by cycle.
Assay [26] can be described thus: Inhibition of pre-miR-372 (unknown origin).
Assay [27] relates to HeLa. In words: Inhibition of miR-21 in human HeLa cells by qRT-PCR assay relative to control. Format: cell-based. The settings on record: dose or concentration not given here.
A short description of assay [28]: Inhibition of miR-21 in human HeLa cells by luciferase assay. Format: cell-based.
Assay [29] has as its system HeLa. Kind of assay: Inhibition of pre-miR-21 in human HeLa cells by qRT-PCR assay relative to control. Format: cell-based. The settings on record: dose or concentration not given here.

The structures appear in SMILES notation. Several values for one entry are separate records, joined by “and”; a condition that tells them apart may be missing. Identical values can stand only once.

Sequence of Protein argonaute-2 (Q9UKV8 whole entry): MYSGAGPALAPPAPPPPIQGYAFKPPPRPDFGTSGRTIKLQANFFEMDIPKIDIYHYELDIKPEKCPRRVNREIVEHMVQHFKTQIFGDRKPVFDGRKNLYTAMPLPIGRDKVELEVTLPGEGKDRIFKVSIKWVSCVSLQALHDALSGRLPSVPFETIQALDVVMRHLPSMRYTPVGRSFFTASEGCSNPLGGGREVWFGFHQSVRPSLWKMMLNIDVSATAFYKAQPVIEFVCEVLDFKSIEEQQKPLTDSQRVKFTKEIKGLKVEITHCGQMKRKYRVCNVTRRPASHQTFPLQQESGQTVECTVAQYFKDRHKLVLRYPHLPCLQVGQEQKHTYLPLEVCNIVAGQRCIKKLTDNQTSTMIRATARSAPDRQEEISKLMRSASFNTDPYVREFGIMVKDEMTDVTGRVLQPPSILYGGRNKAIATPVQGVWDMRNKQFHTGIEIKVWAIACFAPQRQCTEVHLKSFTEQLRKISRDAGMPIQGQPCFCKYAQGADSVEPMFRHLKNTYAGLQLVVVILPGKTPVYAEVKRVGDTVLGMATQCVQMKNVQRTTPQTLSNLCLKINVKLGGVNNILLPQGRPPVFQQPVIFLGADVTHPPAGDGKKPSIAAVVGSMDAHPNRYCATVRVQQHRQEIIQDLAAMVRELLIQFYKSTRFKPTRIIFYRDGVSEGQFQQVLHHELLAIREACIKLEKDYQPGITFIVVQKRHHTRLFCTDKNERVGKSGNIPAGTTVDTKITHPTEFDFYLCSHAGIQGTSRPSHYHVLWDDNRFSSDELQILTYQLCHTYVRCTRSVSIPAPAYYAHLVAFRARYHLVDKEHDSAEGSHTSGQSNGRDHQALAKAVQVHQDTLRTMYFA

Turning to `CCn1cc(C(=O)O)c(=O)c2cc(F)c(N3CCNCC3)nc21` [ENOXACIN], in [1], the 50% inhibitory concentration (IC50) was determined as 30000 nM.

For the compound `CN(C)CCN1C(=O)c2cccc3cc(N)cc(c23)C1=O` [AMONAFIDE], the 50% inhibitory concentration (IC50) in [2] was 3000 nM. In addition, in assay [3], the Activity is 0.11 RLU.

Compound `O=C(c1ccccc1)c1c2c3c(cccc3c3ccccc13)C(=O)C=C2` yielded an inhibition with MCF7 of 30%.

In the assay on Huh-7, `O=C(Nc1ccc2ccccc2c1)c1ccc(Cl)cc1Cl` returned an inhibition of 48%. For the same compound, in assay [4], the Activity amounted to 7.73 RLU. In assay [5], it took 3000 nM to reach half-maximal inhibition (IC50).

Regarding `[N-]=[N+]=NC[C@H]1O[C@@H](O[C@H]2[C@H](O[C@H]3O[C@H](CNC(=N)N)[C@@H](O)[C@H](O)[C@H]3NC(=N)N)[C@@H](NC(=N)N)CC[C@@H]2O)[C@H](O)[C@@H]1O[C@H]1O[C@@H](CNC(=N)N)C[C@H](O)[C@H]1NC(=N)N`, the inhibition with HeLa [6] stood at 30%; in the assay on HeLa [8], 50%. Moreover, in assay [7], the dissociation constant (Kd) was 417 nM.

With `CNC(=O)c1cc(Oc2ccc(NC(=O)Nc3ccc(Cl)c(C(F)(F)F)c3)c(F)c2)ccn1` [REGORAFENIB], the dissociation constant Kd in [9] amounted to 730 nM. The compound further displayed an inhibition in [10] of 25%.

Regarding `CC(NS(=O)(=O)c1ccc2nc(O)c(O)nc2c1)C(=O)O` (centres undefined), at Protein argonaute-2, the Kd was 126000 nM.

In the case of `O=C1c2c(O)ccc(O)c2C(=O)c2c(NCCNCCO)ccc(NCCNCCO)c21` [MITOXANTRONE], the IC50 in [11] came out at 3000 nM. The results for the Kd in assay [12] and in assay [13] were 33 nM and 46 nM, respectively.

In the case of `CN1CCN(c2ccc3nc(-c4cc(C(C)(C)C)c(OCCCC(=O)NCCCN=[N+]=[N-])c(C(C)(C)C)c4)[nH]c3c2)CC1`, the inhibition in the assay with HeLa [14] was 90%.

For the compound `NC(=O)C1=Cc2ccccc2C/C1=N/CC(=S)Nc1ccccc1`, the dissociation constant (Kd) in assay [15] and in assay [16] was 3700 nM throughout.

In the case of `CC(=O)Nc1csc(-c2cccc(NC(=O)CCc3cn([C@H]4O[C@@H](O[C@@H]5[C@@H](O)[C@H](N)C[C@H](N)[C@H]5O[C@H]5O[C@H](CN)[C@@H](O)[C@H](O)[C@H]5N)[C@H](O)[C@@H]4O[C@H]4O[C@@H](CN)[C@@H](O)[C@H](O)[C@H]4N)nn3)c2)n1`, the dissociation constant Kd in assay [17] amounted to 14 nM. This compound yielded an inhibition in assay [18] of 20%. In addition, the results for the IC50 in assay [19] and in assay [20] were 5130 nM and 2430 nM, respectively.

On to `NC[C@@H]1O[C@H](O[C@H]2[C@@H](O)[C@H](O[C@@H]3[C@@H](O)[C@H](N)C[C@H](N)[C@H]3O[C@H]3O[C@H](CN)[C@@H](O)[C@H](O)[C@H]3N)O[C@@H]2CSCCNC(=O)CCCCCn2cc(Oc3ccc4c(c3)C(=O)N(O)C(=O)C4)nn2)[C@H](N)[C@@H](O)[C@@H]1O`, for which the inhibition in [21] was 90%.

As for `O=S(=O)(c1ccc2c(c1)CCCN2)N1CCC[C@H]2CCCC[C@@H]21`, the inhibition in the assay on Huh-7 came out at 47%. Moreover, the Activity in [4] came to 0.6 RLU. This compound registered an IC50 in [5] of 600 nM.

For the compound `CN1CCN(c2ccc(-c3ccc4nc(-c5cc(C(C)(C)C)c(OCCCC(=O)NCCCN=[N+]=[N-])c(C(C)(C)C)c5)[nH]c4c3)cc2)CC1`, the figures for the Kd in assay [22] and in assay [23] were 85 nM and 30000 nM, respectively. Also, the IC50 in assay [24] is 50 nM and 200 nM; in assay [25], 10000 nM.

The compound `CN(c1ccccc1)C1c2ccccc2N=C(NCCCNCCCCNCCCN)C1(C)C` (centres undefined) gave an IC50 in assay [26] of 1060 nM.

In the case of `C#CCNC(=O)c1ccc(/N=N/c2ccccc2)cc1`, the inhibition in the assay with HeLa [27] and with HeLa [29] was 87% in each case. Besides, a half-maximal response in [28] (EC50) required 2000 nM.

Turning to `NC[C@@H]1O[C@H](O[C@H]2[C@@H](O)[C@H](O[C@@H]3[C@@H](O)[C@H](N)C[C@H](N)[C@H]3O[C@H]3O[C@H](CN)[C@@H](O)[C@H](O)[C@H]3N)O[C@@H]2n2cc(CCc3nc4cc(NC(=O)Nc5ccccc5)ccc4o3)nn2)[C@H](N)[C@@H](O)[C@@H]1O`, the equilibrium dissociation constant (Kd) in [17] is 14 nM. This compound yielded an inhibition in assay [18] of 20%. For the same compound, the results for the IC50 in assay [19] and in assay [20] were 540 nM and 4170 nM, respectively.

In general, IC50 refers to the midpoint of a concentration-inhibition curve. What is called inhibition is the drop in the measured response relative to a control, in per cent. In general, Kd refers to the constant that tells how readily two partners part at equilibrium. Broadly, the EC50 is the concentration needed to bring the measured effect to its halfway point. Read a low EC50 as greater potency.

The record behind these values is ChEMBL document CHEMBL5233220, “A review of currently identified small molecule modulators of microRNA function” (Eur J Med Chem, 2020).
